Results taken from ChEMBL document CHEMBL2384988, “Discovery of 2-{3-[2-(1-isopropyl-3-methyl-1H-1,2-4-triazol-5-yl)-5,6-dihydrobenzo[f]imidazo[1,2-d][1,4]oxazepin-9-yl]-1H-pyrazol-1-yl}-2-methylpropanamide (GDC-0032): a β-sparing phosphoinositide 3-kinase inhibitor with high unbound exposure and robust in vivo antitumor activity” (J Med Chem, 2013).
In brackets after ≈: the same amount, converted by molar mass. Each block holds one compound with its values, some of them ahead of it.

Assays:
[1] = tested on: Mus musculus; assay: Toxicity in nude mouse xenografted with human MCF7-neo/Her2 cells assessed as body weight loss relative to vehicle-treated control; type: organism-based
[2] = tested on: Mus musculus; assay: Unbound AUC in nude mouse at 100 mg/kg, po; type: ADME, organism-based; parameters: dose 100 mg/kg, route oral; conditions: in vivo
[3] = AUCtotal in nude mouse at 100 mg/kg, po; type: ADME, organism-based; parameters: time AUCmax, dose 100 mg/kg, route oral; conditions: plasma
[4] = Kinetic solubility of the compound; type: physicochemical; conditions: read-out: Kinetic_solubility
[5] = Intrinsic clearance in mouse liver microsomes after 1 hr by LC-MS/MS analysis; type: ADME, Microsome; conditions: read-out: CLH
[6] = target: T1, Phosphatidylinositol 4,5-bisphosphate 3-kinase catalytic subunit alpha isoform (Homo sapiens, UniProt P42336)
Description: Inhibition of PI3Kalpha (unknown origin) assessed as 3,4,5-inositoltriphosphate formation after 30 mins by fluorescence polarization assay

[7] = cells; conditions: Homo sapiens
Description: Cytotoxicity against human MCF7-neo/Her2 cells after 3 to 4 days by CellTitre-Glo assay

[8] = tested on: Mus musculus; assay: Unbound AUC in nude mouse at 1 mg/kg, iv and 25 mg/kg, po; type: ADME, organism-based; conditions: in vivo
[9] = tested on: Mus musculus; assay: (§1) AUCtotal in nude mouse at 1 mg/kg, iv and 25 mg/kg, po; type: ADME, organism-based, Plasma; conditions: in vivo
[10] = tested on: Mus musculus; assay: Unbound clearance in nude mouse at 1 mg/kg, iv and 25 mg/kg, po; type: ADME, organism-based; conditions: in vivo
[11] = (§2) Plasma protein binding in mouse by equilibrium dialysis; type: ADME, cell-free; conditions: read-out: PPB (converted)
[12] = target: T1, Phosphatidylinositol 4,5-bisphosphate 3-kinase catalytic subunit alpha isoform; remark: listed apart in the source
Description: Inhibition of PI3Kalpha in human MCF7-neo/Her2 cells assessed as reduction of AKT phosphorylation at S473

[13] = Oral bioavailability in mouse; type: ADME, organism-based; conditions: in vivo
[14] = Plasma protein binding in human; type: ADME, cell-free; conditions: read-out: PPB (converted)
[15] = Plasma protein binding in rat; type: ADME, cell-free; conditions: read-out: PPB (converted)
[16] = target: Serine/threonine-protein kinase mTOR (Homo sapiens, UniProt P42345); assay: Inhibition of mTOR (unknown origin)
[17] = target: DNA-dependent protein kinase catalytic subunit (Homo sapiens, UniProt P78527); assay: Inhibition of DNA-dependent protein kinase (unknown origin)
[18] = target: Phosphatidylinositol 4-phosphate 3-kinase C2 domain-containing subunit alpha (Homo sapiens, UniProt O00443); assay: Inhibition of PI3KC2alpha (unknown origin)
[19] = tested on: PC-3; assay: Cytotoxicity against human PC3 cells; type: functional, cell-based
[20] = Oral bioavailability in Sprague-Dawley rat; type: ADME, organism-based; conditions: in vivo
[21] = Plasma clearance in Sprague-Dawley rat; type: ADME, organism-based
[22] = target: Phosphatidylinositol 3-kinase catalytic subunit type 3 (Homo sapiens, UniProt Q8NEB9); assay: Inhibition of human VPS34
[23] = tested on: Mus musculus; assay: In vivo inhibition of PI3Kalpha in human MCF7-neo/Her2 cells xenografted in nude mouse assessed as reduction in AKT phosphorylation at S473 at 2.8 mg/kg, po measured after 1 hr; type: functional; parameters: scale not given: the % may be the effect or the level left
[24] = target: Phosphatidylinositol 4-phosphate 3-kinase C2 domain-containing subunit beta (Homo sapiens, UniProt O00750); assay: Inhibition of PI3KC2beta (unknown origin)
[25] = as §1; type: ADME, organism-based, Plasma; conditions: nude, plasma
[26] = tested on: Plasma; assay: as §2; type: ADME, cell-free
[27] = Plasma clearance in nude mouse at 1 mg/kg, iv and 25 mg/kg, po; type: ADME, organism-based
[28] = target: T2, Phosphatidylinositol 4,5-bisphosphate 3-kinase catalytic subunit delta isoform (Homo sapiens) (UniProt O00329); conditions: 1 uM
T2 sequence (whole entry): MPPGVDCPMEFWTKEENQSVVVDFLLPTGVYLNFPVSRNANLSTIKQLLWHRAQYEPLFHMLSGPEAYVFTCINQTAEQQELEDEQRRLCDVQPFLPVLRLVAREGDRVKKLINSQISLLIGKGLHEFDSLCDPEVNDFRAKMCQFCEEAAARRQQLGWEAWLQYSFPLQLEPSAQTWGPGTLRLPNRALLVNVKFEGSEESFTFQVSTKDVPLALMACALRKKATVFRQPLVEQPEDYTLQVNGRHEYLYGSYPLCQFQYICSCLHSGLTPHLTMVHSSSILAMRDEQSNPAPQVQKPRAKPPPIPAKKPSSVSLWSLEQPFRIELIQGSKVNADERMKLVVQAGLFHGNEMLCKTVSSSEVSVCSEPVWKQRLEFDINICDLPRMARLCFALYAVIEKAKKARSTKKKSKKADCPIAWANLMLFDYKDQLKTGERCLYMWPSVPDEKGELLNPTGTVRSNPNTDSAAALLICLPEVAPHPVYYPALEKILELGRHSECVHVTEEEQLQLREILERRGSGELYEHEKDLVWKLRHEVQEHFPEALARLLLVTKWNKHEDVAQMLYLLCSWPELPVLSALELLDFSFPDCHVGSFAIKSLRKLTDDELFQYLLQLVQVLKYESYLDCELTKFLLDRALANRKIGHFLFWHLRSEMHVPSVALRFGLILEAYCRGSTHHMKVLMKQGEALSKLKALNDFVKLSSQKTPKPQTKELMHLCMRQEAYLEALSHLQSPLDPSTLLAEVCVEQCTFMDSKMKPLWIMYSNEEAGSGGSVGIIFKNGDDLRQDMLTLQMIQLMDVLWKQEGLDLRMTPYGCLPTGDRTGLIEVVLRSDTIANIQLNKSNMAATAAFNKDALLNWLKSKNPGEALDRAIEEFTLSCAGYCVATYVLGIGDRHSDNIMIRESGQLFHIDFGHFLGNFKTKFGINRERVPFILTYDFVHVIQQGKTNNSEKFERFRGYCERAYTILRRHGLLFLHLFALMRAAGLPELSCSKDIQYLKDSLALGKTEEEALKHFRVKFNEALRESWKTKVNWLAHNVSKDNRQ
Description: Inhibition of PI3Kdelta (unknown origin) at 1 uM

[29] = target: T1, Phosphatidylinositol 4,5-bisphosphate 3-kinase catalytic subunit alpha isoform; conditions: 1 uM
Description: Inhibition of PI3Kalpha (unknown origin) at 1 uM

[30] = animal or person; conditions: Homo sapiens, po, 480 h, read-out: TGI
Description: Antitumor activity against human MCF7-neo/Her2 cells xenografted in nude mouse at 22.5 mg/kg, po qd for 20 days relative to vehicle-treated control

[31] = animal or person; conditions: Homo sapiens, po, 480 h, read-out: TGI; remark: listed apart in the source
Description: Antitumor activity against human MCF7-neo/Her2 cells xenografted in nude mouse at 11.25 mg/kg, po qd for 20 days relative to vehicle-treated control

T1 sequence (P42336 whole entry, canonical isoform): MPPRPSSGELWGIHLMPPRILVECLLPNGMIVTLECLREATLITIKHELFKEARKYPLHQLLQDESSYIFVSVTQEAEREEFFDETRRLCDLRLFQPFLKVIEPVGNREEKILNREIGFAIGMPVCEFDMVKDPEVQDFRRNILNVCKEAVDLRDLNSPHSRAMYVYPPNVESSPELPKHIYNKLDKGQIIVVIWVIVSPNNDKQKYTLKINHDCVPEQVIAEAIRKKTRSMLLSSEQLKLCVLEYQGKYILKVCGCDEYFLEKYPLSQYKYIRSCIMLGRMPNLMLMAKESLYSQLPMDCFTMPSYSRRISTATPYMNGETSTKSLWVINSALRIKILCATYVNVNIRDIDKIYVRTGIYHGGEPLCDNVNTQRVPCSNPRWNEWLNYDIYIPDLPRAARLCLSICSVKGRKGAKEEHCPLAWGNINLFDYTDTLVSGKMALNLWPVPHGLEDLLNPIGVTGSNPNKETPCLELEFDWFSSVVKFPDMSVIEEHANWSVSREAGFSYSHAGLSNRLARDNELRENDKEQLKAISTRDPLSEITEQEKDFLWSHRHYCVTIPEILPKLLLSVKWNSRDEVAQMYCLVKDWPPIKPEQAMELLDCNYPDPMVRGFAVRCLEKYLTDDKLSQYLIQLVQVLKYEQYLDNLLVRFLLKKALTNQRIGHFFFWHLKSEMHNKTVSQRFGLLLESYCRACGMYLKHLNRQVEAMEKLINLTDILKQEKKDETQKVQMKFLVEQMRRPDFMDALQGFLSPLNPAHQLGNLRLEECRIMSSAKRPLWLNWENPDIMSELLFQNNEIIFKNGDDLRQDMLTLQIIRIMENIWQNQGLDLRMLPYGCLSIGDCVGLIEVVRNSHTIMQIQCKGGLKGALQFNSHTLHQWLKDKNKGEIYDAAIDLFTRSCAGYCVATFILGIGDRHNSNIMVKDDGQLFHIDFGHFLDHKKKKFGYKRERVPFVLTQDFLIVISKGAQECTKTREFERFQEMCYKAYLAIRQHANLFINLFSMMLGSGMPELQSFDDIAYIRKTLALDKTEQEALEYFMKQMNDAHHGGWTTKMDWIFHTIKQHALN
Sequence of Phosphatidylinositol 4-phosphate 3-kinase C2 domain-containing subunit beta (O00750 whole entry, the tested form may be a part): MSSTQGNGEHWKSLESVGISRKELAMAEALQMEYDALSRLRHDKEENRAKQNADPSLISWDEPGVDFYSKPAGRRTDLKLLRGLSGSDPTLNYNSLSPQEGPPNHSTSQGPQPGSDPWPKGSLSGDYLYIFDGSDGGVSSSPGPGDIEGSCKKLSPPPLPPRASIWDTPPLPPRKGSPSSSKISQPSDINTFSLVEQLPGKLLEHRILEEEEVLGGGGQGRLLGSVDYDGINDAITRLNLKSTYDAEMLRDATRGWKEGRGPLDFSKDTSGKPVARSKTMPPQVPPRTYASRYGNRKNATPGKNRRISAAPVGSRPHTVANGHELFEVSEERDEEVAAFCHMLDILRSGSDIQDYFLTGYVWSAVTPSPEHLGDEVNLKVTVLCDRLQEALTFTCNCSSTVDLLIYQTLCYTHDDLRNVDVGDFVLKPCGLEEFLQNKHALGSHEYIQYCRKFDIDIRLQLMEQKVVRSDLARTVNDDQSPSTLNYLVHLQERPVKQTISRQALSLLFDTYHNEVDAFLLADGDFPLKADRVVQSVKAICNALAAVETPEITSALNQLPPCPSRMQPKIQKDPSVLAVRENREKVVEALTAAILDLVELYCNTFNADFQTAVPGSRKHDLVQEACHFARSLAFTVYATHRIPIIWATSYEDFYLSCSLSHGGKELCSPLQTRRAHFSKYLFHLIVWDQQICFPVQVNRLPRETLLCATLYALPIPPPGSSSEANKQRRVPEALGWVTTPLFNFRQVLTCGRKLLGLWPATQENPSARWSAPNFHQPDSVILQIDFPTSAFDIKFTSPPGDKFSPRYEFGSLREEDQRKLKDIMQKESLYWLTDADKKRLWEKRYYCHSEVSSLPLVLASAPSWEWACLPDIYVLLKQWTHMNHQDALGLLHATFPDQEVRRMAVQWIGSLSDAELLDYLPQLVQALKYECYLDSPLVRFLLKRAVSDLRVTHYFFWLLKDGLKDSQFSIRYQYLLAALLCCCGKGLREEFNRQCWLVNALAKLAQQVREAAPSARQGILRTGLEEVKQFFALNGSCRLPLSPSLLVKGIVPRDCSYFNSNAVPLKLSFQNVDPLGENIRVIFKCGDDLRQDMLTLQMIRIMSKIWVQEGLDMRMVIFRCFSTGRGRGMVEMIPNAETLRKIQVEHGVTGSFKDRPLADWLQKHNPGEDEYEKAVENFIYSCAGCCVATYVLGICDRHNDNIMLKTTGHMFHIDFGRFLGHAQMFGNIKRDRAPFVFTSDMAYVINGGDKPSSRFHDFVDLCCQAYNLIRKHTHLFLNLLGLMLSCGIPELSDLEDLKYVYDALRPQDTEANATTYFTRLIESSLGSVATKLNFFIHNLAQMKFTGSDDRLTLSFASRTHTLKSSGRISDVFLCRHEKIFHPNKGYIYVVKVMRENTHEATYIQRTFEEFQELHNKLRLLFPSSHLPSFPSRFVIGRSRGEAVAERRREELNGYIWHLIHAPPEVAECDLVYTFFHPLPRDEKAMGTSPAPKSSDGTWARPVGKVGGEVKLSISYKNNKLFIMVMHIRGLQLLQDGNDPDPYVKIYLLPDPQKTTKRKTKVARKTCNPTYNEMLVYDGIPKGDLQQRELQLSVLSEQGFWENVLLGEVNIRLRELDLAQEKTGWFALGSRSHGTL
Sequence of Phosphatidylinositol 3-kinase catalytic subunit type 3 (Q8NEB9 whole entry): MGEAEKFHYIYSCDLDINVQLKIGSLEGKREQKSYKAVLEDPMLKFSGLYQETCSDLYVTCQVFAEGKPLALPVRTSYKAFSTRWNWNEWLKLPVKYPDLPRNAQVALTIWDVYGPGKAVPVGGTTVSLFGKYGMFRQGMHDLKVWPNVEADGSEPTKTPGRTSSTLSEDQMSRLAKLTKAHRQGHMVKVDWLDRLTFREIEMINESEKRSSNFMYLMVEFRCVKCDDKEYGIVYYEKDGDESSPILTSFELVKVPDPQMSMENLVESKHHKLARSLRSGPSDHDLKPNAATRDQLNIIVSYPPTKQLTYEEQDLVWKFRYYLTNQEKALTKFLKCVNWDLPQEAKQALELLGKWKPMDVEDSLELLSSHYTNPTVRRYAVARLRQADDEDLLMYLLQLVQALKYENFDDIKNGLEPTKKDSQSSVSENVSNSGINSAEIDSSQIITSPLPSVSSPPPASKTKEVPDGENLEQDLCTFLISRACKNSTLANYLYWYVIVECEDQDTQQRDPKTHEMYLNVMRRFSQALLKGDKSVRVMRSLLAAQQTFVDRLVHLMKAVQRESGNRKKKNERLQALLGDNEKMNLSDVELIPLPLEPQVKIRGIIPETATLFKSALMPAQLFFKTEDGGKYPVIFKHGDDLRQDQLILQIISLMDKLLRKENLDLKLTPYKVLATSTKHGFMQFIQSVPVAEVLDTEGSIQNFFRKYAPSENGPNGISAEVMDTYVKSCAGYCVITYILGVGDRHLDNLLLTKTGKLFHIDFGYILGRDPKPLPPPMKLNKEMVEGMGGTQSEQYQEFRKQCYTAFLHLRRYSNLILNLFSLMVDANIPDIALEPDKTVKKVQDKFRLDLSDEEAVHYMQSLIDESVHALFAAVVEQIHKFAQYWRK

Compound: CS(=O)(=O)N1CCN(Cc2cc3nc(-c4cccc5[nH]ncc45)nc(N4CCOCC4)c3s2)CC1 [PICTILISIB]
Activity [1]: < 10%
fAUC [2]: 3.5 µM·h
AUC [3]: 80.3 µM·h

Compound: CC(C)n1ncnc1-c1cn2c(n1)-c1ccc(-c3cn[nH]c3)cc1OCC2
solubility kinetic [4]: < 1 µM
CLint scaled [5]: 550 mL/min/kg
Ki [6]: 0.31 nM
IC50 [7]: 218 nM

Compound: Cc1n[nH]c(-c2cn3c(n2)-c2ccc(-c4cnn(CCO)c4)cc2OCC3)n1
solubility kinetic [4]: 95.8 µM (≈ 36.2 µg/mL)
Ki [6]: 21.1 nM
IC50 [7]: > 10000 nM

Compound: Cc1nc(-c2cn3c(n2)-c2ccc(-c4cnn(CCO)c4)cc2OCC3)n(C)n1
solubility kinetic [4]: 2.4 µM (≈ 0.939 µg/mL)
CLint scaled [5]: 100 mL/min/kg
Ki [6]: 2.8 nM
IC50 [7]: 1400 nM

Compound: Cc1nc(-c2cn3c(n2)-c2ccc(-c4cnn(C)c4)cc2OCC3)n(C(C)C)n1
solubility kinetic [4]: 2 µM (≈ 0.779 µg/mL)
CLint scaled [5]: 82 mL/min/kg
IC50 [12]: 0.71 nM
Ki [6]: 0.29 nM
IC50 [7]: 157 nM

Compound: Cc1nc(-c2cn3c(n2)-c2ccc(-c4cnn(CCN5CCOCC5)c4)cc2OCC3)n(C(C)C)n1
solubility kinetic [4]: 52.3 µM (≈ 25.6 µg/mL)
CLint scaled [5]: 89.4 mL/min/kg
IC50 [12]: 35 nM
Ki [6]: 0.3 nM
IC50 [7]: 248 nM

Compound: CC(C)n1ncnc1-c1nc2c(s1)CCOc1cc(-c3cnn(CCO)c3)ccc1-2
fAUC [2]: 0.55 µM·h
AUC [3]: 275 µM·h
fAUC [8]: 0.22 µM·h
AUC [25]: 112 µM·h
CL free [10]: 4750 mL/min/kg
fraction unbound [11]: 0.002
IC50 [7]: 195 nM

More lines, in order of falling IC50 [7], values ahead:

fAUC [8]: 5.2 µM·h
AUC [9]: 291 µM·h
CL free [10]: 83 mL/min/kg
fraction unbound [11]: 0.018
CLint scaled [5]: 68.1 mL/min/kg
IC50 [12]: 4.5 nM
IC50 [7]: 138 nM
Compound: Cc1nc(-c2cn3c(n2)-c2ccc(-c4cnn(CCO)c4)cc2OCC3)n(C(C)C)n1

solubility kinetic [4]: 109 µM (≈ 51.7 µg/mL)
CLint scaled [5]: 58 mL/min/kg
IC50 [12]: 1.4 nM
Ki [6]: 0.11 nM
IC50 [7]: 120 nM
Compound: Cc1nc(-c2cn3c(n2)-c2ccc(-c4cnn(C5CN(CCO)C5)c4)cc2OCC3)n(C(C)C)n1

solubility kinetic [4]: 78.2 µM (≈ 39.3 µg/mL)
CLint scaled [5]: 23 mL/min/kg
IC50 [12]: 0.93 nM
Ki [6]: 0.34 nM
IC50 [7]: 102 nM
Compound: Cc1nc(-c2cn3c(n2)-c2ccc(-c4cnn(C5CN(C(=O)[C@H](C)O)C5)c4)cc2OCC3)n(C(C)C)n1

solubility kinetic [4]: 5.1 µM (≈ 2.07 µg/mL)
CLint scaled [5]: 42.9 mL/min/kg
IC50 [12]: 5.4 nM
Ki [6]: 0.17 nM
IC50 [7]: 92 nM
Compound: CC(C)n1ncnc1-c1cn2c(n1)-c1ccc(-c3cnn(CCO)c3)cc1OCC2

fAUC [8]: 2.7 µM·h
AUC [9]: 156 µM·h
CL free [10]: 282 mL/min/kg
fraction unbound [11]: 0.017
solubility kinetic [4]: 12.4 µM (≈ 5.38 µg/mL)
CLint scaled [5]: 44.3 mL/min/kg
IC50 [12]: 9.4 nM
Ki [6]: 0.14 nM
IC50 [7]: 81 nM
Compound: CC(C)n1ncnc1-c1cn2c(n1)-c1ccc(-c3cnn(CC(C)(C)O)c3)cc1OCC2

solubility kinetic [4]: 7.6 µM (≈ 3.39 µg/mL)
CLint scaled [5]: 28 mL/min/kg
IC50 [12]: 2.9 nM
Ki [6]: < 1 nM
IC50 [7]: 66 nM
Compound: OCCn1cc(-c2ccc3c(c2)OCCn2cc(-c4ncnn4CC(F)(F)F)nc2-3)cn1

bioavailability [13]: 100%
fraction unbound [14]: 0.24
fraction unbound [15]: 0.02
Ki [16]: 1200 nM
IC50 [17]: > 4800 nM
IC50 [18]: > 10000 nM
bioavailability [20]: 99%
clearance [21]: 1.8 mL/min/kg
IC50 [22]: 374 nM
IC50 [24]: 292 nM
fAUC [8]: 42 µM·h
AUC [25]: 388 µM·h
CL free [10]: 25 mL/min/kg
PPB [26]: 89.3%
clearance [27]: 2.7 mL/min/kg
solubility kinetic [4]: 33.1 µM (≈ 15.2 µg/mL)
CLint scaled [5]: 41.1 mL/min/kg
inhibition [28]: 97.9%
inhibition [29]: 98.6%
IC50 [7]: 25 nM
Compound: Cc1nc(-c2cn3c(n2)-c2ccc(-c4cnn(C(C)(C)C(N)=O)c4)cc2OCC3)n(C(C)C)n1 [TASELISIB]
EC50 [19]: 571 nM
Activity [23]: 59%
Activity [1]: < 10%
inhibition in vivo at 22.5 mg/kg [30]: 123%
inhibition in vivo at 11.25 mg/kg [31]: 103%
